Data as given in patent publication US8859225B2, “Systems and methods of voltage-gated ion channel assays” (The Charles Stark Draper Laboratory, Inc., priority 2006, dated 2014).

Tested on: cardiac cell potassium channels
Test: potassium ion-selective optical ion sensor fluorescence assay of electrically paced cardiac myocyte cells (hERG screening)
Assay type: cell-based
Settings: 2.0 μM Haloperidol; myocyte cells paced at 1.0 Hz; FIG. 10D in comparison to FIG. 10B
Excerpt: In one particular example, a cell assay system built in accordance with principles of the invention can be used to conduct hERG screening assays. The hERG gene regulates the activity of potassium ion channels in cardiac myocyte cells. In a functioning heart, electrical voltages are generated by modified myocytes in the sinoatrial and atrioventricular nodes (pacemaking nodes). Such voltages are propagated through the heart by the action of various voltage-gated ion channels that alter the voltage gradients across cardiac cell membranes by exchanging sodium, calcium, and potassium ions across the cell membrane. Various agents are known to interfere with the hERG gene, or otherwise block potassium channel operation, resulting in arrhythmia and potentially heart failure. […]
To test for potassium channel interference, cardiac myocyte cells are provided in a monolayer adhered to a biological sample holder. […] As potassium ions are passed into and out of the myocytes by potassium channels, the fluorescence of the potassium selective optical ion sensor varies in a detectable fashion.
FIGS. 10A and 10B are graphs charting the intensity of potassium ion-selective optical ion sensor fluorescence monitoring the activity of myocyte cells in a biological sample holder. […] The graph of FIG. 10A includes normalized raw fluorescence measurements, both observed and filtered. […]

Structure (SMILES): O=C(CCCN1CCC(O)(c2ccc(Cl)cc2)CC1)c1ccc(F)cc1 [Haloperidol]
- reduction of intensity of fluorescence oscillations at 1.0 Hz (change of extracellular potassium concentration per beat): 30%
